Among the test systems are MCF7 breast; HOP-92 NSCLC; NCI-H226 lung; COLO 205 colon; HL-60(TB) leukemia; TK-10 renal; KM12 colon; EKVX NSCLC; OVCAR-5 ovarian; OVCAR-4 ovarian.
Holding throughout (test): growth of human tumour cells (NCI), 48 h

Structures are written as SMILES.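 Five concentrations, 48 hours, 96-well plates. GI50 is the concentration that inhibits growth by half. At the TGI there is no net growth.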

For the molecule `O=C1c2ccccc2-c2c1c1ccccc1c(=O)n2Cc1ccccc1`, the TGI in the assay on MCF7 breast, with HOP-92 NSCLC, in the assay with NCI-H226 lung, in the assay with COLO 205 colon, in the assay on HL-60(TB) leukemia and with TK-10 renal was > 100 µM each time. In addition, the TGI in the assay on KM12 colon was > 100 µM; in the assay with EKVX NSCLC it was > 100 µM; in the assay on OVCAR-5 ovarian, > 100 µM; with OVCAR-4 ovarian, 42.3 µM.
On to `Cc1ccc(C(=NN=C(N)N)c2ccc(C)cc2)cc1`, for which the GI50 in the assay with MCF7 breast is 0.396 µM; with HOP-92 NSCLC, 0.99 µM; with NCI-H226 lung, 1.69 µM; with COLO 205 colon, 0.445 µM; with HL-60(TB) leukemia, 0.214 µM; in the assay with TK-10 renal, 0.876 µM. Further, the GI50 in the assay with KM12 colon is 0.327 µM; in the assay on EKVX NSCLC, 0.7 µM; in the assay with OVCAR-5 ovarian, 1.85 µM; in the assay with OVCAR-4 ovarian it was 1.7 µM. For the same molecule, the TGI with MCF7 breast came out at 8.53 µM; in the assay on HOP-92 NSCLC, 5.96 µM; with NCI-H226 lung, 10.9 µM; with COLO 205 colon it was 1.41 µM; in the assay on HL-60(TB) leukemia, 0.685 µM; in the assay with TK-10 renal, 11.4 µM. Further, the TGI in the assay on KM12 colon worked out at 1.33 µM; with EKVX NSCLC, 16.6 µM; in the assay with OVCAR-5 ovarian, 13.8 µM; in the assay with OVCAR-4 ovarian it was 13.8 µM.
On to `CCN(CC)CCCC(C)Nc1c(C)cnc2cc(Cl)c(C)cc12` (stereo not drawn), for which the GI50 was 16.2 µM in the assay with MCF7 breast; 0.288 µM in the assay with HOP-92 NSCLC; 4.57 µM in the assay with NCI-H226 lung; 3.96 µM in the assay on COLO 205 colon; 3.19 µM with HL-60(TB) leukemia; 13.9 µM in the assay on TK-10 renal. Besides, the GI50 in the assay with KM12 colon is 13.8 µM; with EKVX NSCLC, 15 µM; in the assay on OVCAR-5 ovarian it was 5.56 µM; in the assay with OVCAR-4 ovarian, 10.2 µM. Further, the TGI is 35.3 µM in the assay with MCF7 breast; 3.87 µM in the assay on HOP-92 NSCLC; 15 µM with NCI-H226 lung; > 38.6 µM in the assay with COLO 205 colon; 21.2 µM in the assay on HL-60(TB) leukemia; 28.4 µM with TK-10 renal. In addition, the TGI stood at 28.6 µM in the assay with KM12 colon, 38.7 µM in the assay with EKVX NSCLC, 18 µM with OVCAR-5 ovarian and 35.7 µM in the assay with OVCAR-4 ovarian.
On to `Cc1cc(SCC(=O)c2ccccc2)nc2ccccc12`, for which the TGI in the assay on MCF7 breast, in the assay on HOP-92 NSCLC, in the assay with NCI-H226 lung, with COLO 205 colon, with HL-60(TB) leukemia and with TK-10 renal was > 100 µM each time. Besides, the TGI in the assay on KM12 colon, in the assay on EKVX NSCLC, in the assay on OVCAR-5 ovarian and in the assay with OVCAR-4 ovarian was > 100 µM in each case.
With `COc1ccc(C(=O)c2cc(C)c(OC)c(C)c2)c(OC)c1N(C(=O)C(Cl)Cl)C(=O)C(Cl)Cl`, the GI50 with MCF7 breast is 0.0811 µM; in the assay with HOP-92 NSCLC, 0.407 µM; in the assay on NCI-H226 lung it was 0.0468 µM; with COLO 205 colon it was 0.156 µM; in the assay with HL-60(TB) leukemia, 0.0306 µM; in the assay with TK-10 renal it was > 79.8 µM. Moreover, the GI50 with KM12 colon is 0.0461 µM; in the assay on EKVX NSCLC, 0.0735 µM; with OVCAR-5 ovarian, 0.111 µM; with OVCAR-4 ovarian it was 1.59 µM. In addition, the TGI in the assay with MCF7 breast is > 100 µM; in the assay on HOP-92 NSCLC it was > 94 µM; with NCI-H226 lung it was 0.468 µM; in the assay on COLO 205 colon it was 4.14 µM; in the assay on HL-60(TB) leukemia, 0.0956 µM; in the assay with TK-10 renal, > 100 µM. Also, the TGI with EKVX NSCLC, in the assay with OVCAR-5 ovarian and in the assay on OVCAR-4 ovarian was > 100 µM throughout.
In the case of `CCN(CC)CCN1CC(O)=C(c2nc(-c3ccc(Cl)cc3)cs2)C1=N`, the GI50 was 1.42 µM in the assay with MCF7 breast; 1.49 µM with HOP-92 NSCLC; 1.85 µM with NCI-H226 lung; 2.04 µM in the assay on COLO 205 colon; 1.5 µM in the assay with HL-60(TB) leukemia; 2.86 µM with TK-10 renal. For the same molecule, the GI50 with KM12 colon is 2.72 µM; with EKVX NSCLC, 9.36 µM; with OVCAR-5 ovarian, 6.38 µM; with OVCAR-4 ovarian, 18.3 µM. The TGI with MCF7 breast came out at 3.36 µM; with HOP-92 NSCLC, 8.65 µM; with NCI-H226 lung, 3.88 µM; in the assay with COLO 205 colon, 4 µM; with HL-60(TB) leukemia it was 3.5 µM; with TK-10 renal it was 5.65 µM. The TGI in the assay with KM12 colon is 8.09 µM; in the assay with EKVX NSCLC, 33.9 µM; with OVCAR-5 ovarian, 31.3 µM; in the assay on OVCAR-4 ovarian, > 100 µM.
With `COC(=O)Nc1nc2ccc(Oc3ccc(NC(=O)Nc4ccccc4)cc3)cc2[nH]1`, the GI50 in the assay on MCF7 breast was 0.0932 µM; in the assay on HOP-92 NSCLC, 0.555 µM; with NCI-H226 lung it was 0.18 µM; in the assay on COLO 205 colon, 0.0835 µM; with HL-60(TB) leukemia, 0.0654 µM; in the assay with TK-10 renal, 0.787 µM. Also, the GI50 was 0.106 µM with KM12 colon, 2.44 µM in the assay on EKVX NSCLC, 1.06 µM with OVCAR-5 ovarian and 0.207 µM with OVCAR-4 ovarian. For the same molecule, the TGI in the assay with HOP-92 NSCLC is 11.1 µM; with NCI-H226 lung, 5.21 µM; with COLO 205 colon, 0.487 µM; in the assay with HL-60(TB) leukemia it was 0.295 µM; in the assay on TK-10 renal, 9.74 µM; in the assay on KM12 colon, 4.87 µM. The TGI in the assay with EKVX NSCLC is > 25 µM; in the assay on OVCAR-5 ovarian it was > 14.4 µM; with OVCAR-4 ovarian it was 5.68 µM.
In the case of `Clc1nc(Cl)c2ncn(Cc3cccc(COc4cccc(OCc5cccc(Cn6cnc7c(Cl)nc(Cl)nc76)c5)c4)c3)c2n1`, the GI50 in the assay with MCF7 breast is 31.1 µM; in the assay on HOP-92 NSCLC, 15.6 µM; with NCI-H226 lung, 4.97 µM; in the assay on COLO 205 colon, > 100 µM; in the assay on HL-60(TB) leukemia it was 4.61 µM; in the assay on TK-10 renal, 37.5 µM. For the same molecule, the GI50 with KM12 colon was 34.6 µM; with EKVX NSCLC, > 100 µM; in the assay with OVCAR-5 ovarian, > 100 µM; in the assay with OVCAR-4 ovarian, 32 µM. Besides, the TGI with MCF7 breast is > 100 µM; in the assay on HOP-92 NSCLC, 69.2 µM; with NCI-H226 lung it was 27.5 µM; with COLO 205 colon, > 100 µM; with HL-60(TB) leukemia it was 31.3 µM; in the assay on TK-10 renal it was > 100 µM. Besides, the TGI in the assay on KM12 colon, in the assay on EKVX NSCLC, with OVCAR-5 ovarian and with OVCAR-4 ovarian was > 100 µM each time.

These data come from PubChem BioAssay (NCI).
